In patent publication US20250382344A1, “Soluble GLP1/GIP/NPY2 Receptor Triple Agonists” (Boehringer Ingelheim International GmH, priority 2024, published 2025):

Test: Solubility in 0.1 M phosphate buffer at pH 7
Format: physicochemical
Conditions: 0.1 M phosphate buffer at pH 7, 10 mg/mL final peptide concentration, shaking 2 hours at room temperature, peptides as TFA-salts; measured sample pH 6.5-7.0; read-out: Solubility
Description: Peptides (as TFA-salts) were weighed out in a filter unit (Mini-UniPrep Syringeless Filter 0.45 μm, Whatman PVDF), and 0.1 M phosphate buffer at pH 7 was added to achieve 10 mg/mL final peptide concentration. The peptides were dissolved by shaking the filter units horizontally at 600 rpm for 2 hours at room temperature. Samples were then filtered to remove any insoluble particles. Controls were prepared by weighing out the corresponding peptide solid material and dissolving it in an appropriate vehicle (e.g. ACN:H2O) to a final concentration of 1 mg/mL. Both, the control and sample were analyzed by reversed phase chromatography. The area under the peak of the sample was compared to the control and the solubility was calculated based on that ratio. The pH was measured and recorded for each sample.

| solubility | Structure (SMILES) |
| --- | --- |
| 4800 µg/mL | CC[C@H](C)[C@H](NC(=O)[C@H](CC(C)C)NC(=O)[C@H](Cc1c[nH]cn1)NC(=O)[C@H](CCCNC(=N)N)NC(=O)[C@@H](NC(=O)[C@H](Cc1ccccc1)NC(=O)[C@H](C)NC(=O)C(C)(C)NC(=O)[C@H](CCC(N)=O)NC(=O)[C@H](C)NC(=O)[C@H](CCC(N)=O)NC(=O)[C@H](CCCCN)NC(=O)[C@H](CCC(=O)O)NC(=O)[C@H](CC(C)C)NC(=O)C(C)(C)NC(=O)[C@@H](NC(=O)[C@H](CO)NC(=O)[C@H](Cc1ccc(O)cc1)NC(=O)[C@H](CC(=O)O)NC(=O)[C@H](CO)NC(=O)[C@@H](NC(=O)[C@H](Cc1ccccc1)NC(=O)[C@@H](NC(=O)CNC(=O)[C@H](CCC(=O)O)NC(=O)C(C)(C)NC(=O)[C@@H](N)Cc1ccc(O)cc1)[C@@H](C)O)[C@@H](C)O)[C@@H](C)CC)C(C)C)C(=O)N[C@@H](CC(N)=O)C(=O)N[C@@H](CCCCNC(=O)COCCOCCNC(=O)COCCOCCNC(=O)CC[C@H](NC(=O)CC[C@H](NC(=O)CC[C@H](NC(=O)CC[C@H](NC(=O)CC[C@H](NC(=O)CCCCCCCCCCCCCCCCC(=O)O)C(=O)O)C(=O)O)C(=O)O)C(=O)O)C(=O)O)C(=O)NC(C)(C)C(=O)N[C@H](C(=O)N[C@@H](CCCNC(=N)N)C(=O)N[C@@H](CCC(N)=O)C(=O)N[C@@H](CCCNC(=N)N)C(=O)N[C@@H](Cc1ccc(O)cc1)C(N)=O)[C@@H](C)O [Compound 117, Y-Aib-E-G-T-F-T-S-D-Y-S-I-Aib-L-E-K-Q-A-Q-Aib-A-F-V-R-H-L-I-N-K(1,3)-Aib-T-R-Q-R-Y-NH2.C18DA-gGlu-gGlu-gGlu-gGlu-gGlu-OEG-OEG(1,2)] |
| 4700 µg/mL | CC[C@H](C)[C@H](NC(=O)[C@H](CC(C)C)NC(=O)[C@H](Cc1c[nH]cn1)NC(=O)[C@H](CCCNC(=N)N)NC(=O)[C@@H](NC(=O)[C@H](Cc1ccccc1)NC(=O)[C@H](C)NC(=O)C(C)(C)NC(=O)[C@H](CCC(N)=O)NC(=O)[C@H](C)NC(=O)[C@H](CCC(N)=O)NC(=O)[C@H](CCCCN)NC(=O)[C@H](CCC(=O)O)NC(=O)[C@H](CC(C)C)NC(=O)C(C)(C)NC(=O)[C@@H](NC(=O)[C@H](CO)NC(=O)[C@H](Cc1ccc(O)cc1)NC(=O)[C@H](CC(=O)O)NC(=O)[C@H](CO)NC(=O)[C@@H](NC(=O)[C@H](Cc1ccccc1)NC(=O)[C@@H](NC(=O)CNC(=O)[C@H](CCC(=O)O)NC(=O)C(C)(C)NC(=O)[C@@H](N)Cc1ccc(O)cc1)[C@@H](C)O)[C@@H](C)O)[C@@H](C)CC)C(C)C)C(=O)N[C@@H](CC(N)=O)C(=O)N[C@@H](CCCCNC(=O)[C@@H](N)CCNC(=O)CC[C@H](NC(=O)CC[C@H](NC(=O)CC[C@H](NC(=O)CC[C@H](NC(=O)CC[C@H](NC(=O)CC[C@H](NC(=O)CCCCCCCCCCCCCCCCC(=O)O)C(=O)O)C(=O)O)C(=O)O)C(=O)O)C(=O)O)C(=O)O)C(=O)NC(C)(C)C(=O)N[C@H](C(=O)N[C@@H](CCCNC(=N)N)C(=O)N[C@@H](CCC(N)=O)C(=O)N[C@@H](CCCNC(=N)N)C(=O)N[C@@H](Cc1ccc(O)cc1)C(N)=O)[C@@H](C)O [Compound 120, Y-Aib-E-G-T-F-T-S-D-Y-S-I-Aib-L-E-K-Q-A-Q-Aib-A-F-V-R-H-L-I-N-K(1,3)-Aib-T-R-Q-R-Y-NH2.C18DA-gGlu-gGlu-gGlu-gGlu-gGlu-gGlu-gDab(1,2)] |
